Test results from patent US10155802B2, “Locally-active anticoagulants and anti-inflammatory agents” (priority 2011, dated 2018).
No end group written: not given here.

Tests used:
[1] = system: pooled human plasma; test: Prothrombin time (PT, thromboplastin) clotting assay; assay type: biochemical; conditions: for IC50: 37° C., concentration that prolongs clotting time by 50%
Description: (§1) Prothrombin (clotting) time (PT) or activated partial thromboplastin (clotting) time (APTT) assays were carried out at certain concentrations of the thrombin inhibitors of the present invention using pooled human plasma with addition of thromboplastin or activated partial thromboplastin to initiate clotting. The assays employed kits from Biopool International (Ventura, Calif., USA) or from Pacific Haemostasis (Middletown, Va., USA) using the procedures supplied by the manufacturer. Briefly, the stock solution of an inhibitor (with the concentration determined using UV-based OD determination, see Gill 1989) is diluted in a buffer of 20 mM HEPES and 150 mM NaCl at pH 7.4 (HBS) to a final volume of 50 μL, to which is added the reconstituted normal plasma (Product #CMS-176172 from Fisher Scientific) in an equal volume. This solution mixture is equilibrated at 37° C. for 2 minutes before 50 μL of the APTT-10XL solution (CMS-022927) is introduced forcibly to ensure proper mixing. This new mixture was incubated at 37° C. for another 5 minutes, which is followed by the addition of 50 μL of 0.02 M […] (Fisher Scientific CMS-022925) pre-warmed at 37° C. For the prothrombin time (PT) assay, an inhibitor is diluted in HBS to a final volume of 25 μL, to which is added the reconstituted control plasma (Fisher Scientific CMS-176172) in an equal volume. This solution mixture is equilibrated at 37° C. for 5 minutes before addition of 100 μL of the thromboplastin solution (CMS-176099) pre-warmed at 37° C. For APTT assays, inhibitory activities of the peptides are expressed as concentrations needed to achieve 50% of the maximum delay in clotting time (MCT50) as compared to the absence of thrombin inhibitors (Maraganore 1989). For PT assays, inhibitory activities are measured as the concentrations of the peptides that prolong the clotting time by 50% (IC50) of that of the normal control plasma (Maraganore 1990). PT and APTT assays were also carried out using slightly modified experimental procedures. Thus, 50 μL of a control plasma (Pacific Hemostasis) solution was added to 100 μL HBS (20 mM HEPES and 150 mM NaCl at pH 7.4) containing varied concentrations of the peptides of this invention. After incubation at 37° C. for 5 min, the mixture was added to 50 μL of the thromboplastin or activated partial thromboplastin reagent. Clotting of the plasma was monitored by change in absorbance at 420 nm using a SpectraMax™ plate reader.

[2] = system: FeCl3-induced arterial thrombosis (carotid artery); test: FeCl3-induced arterial model of thrombosis in rats (time to occlusion); assay type: in vivo; conditions: rat, single-bolus injection
Description: Male Sprague-Dawley rats (250-310 g; Charles River Laboratories, St-Constant, QC, Canada) were acclimated for at least 3 days prior to the start of the study. Animals were housed in microisolator cages and were kept on a 12-hr light/dark cycle with constant temperature and humidity. Food and water were provided ad libitum. Various anti-thrombotic agents and peptides of this invention were dissolved in saline (0.9% sodium chloride) prior to use.
The FeCl3-induced arterial model of thrombosis in rats was also generated as described by Wang and Xu (Wang 2005) with some modifications (Couture 2011). Briefly, rats were anesthetized with a 2.5% isoflurane/oxygen mixture and placed on a heat source (35-37° C.). An incision was made over the right carotid artery, and a segment of the artery was exposed via blunt dissection. A Doppler flow probe (Model MA1PRB, Transonic System Inc., Ithaca, N.Y., USA) connected to a perivascular flow module (TS420, Transonic System Inc., Ithaca, N.Y., USA) was then attached to the carotid artery to monitor blood flow. Data were collected and analyzed using the MP100 Biopac™ Systems (Biopac Systems, Santa Barbara, Calif., USA), and the AcgKnowledge™ software (Biopac Systems, Santa Barbara, Calif., USA), respectively. Baseline blood flow was recorded for a minimum of 15 minutes until readings stabilized. Aquasonic 100 gel (Parker Laboratories, Inc., Fairfield, N.J., USA) was added to help conductivity and any fluid accumulating at the site of surgery was removed during data sampling without touching the probe. […] One minute after drug administration, a piece of filter paper (Gel Blot Paper, GB003, Whatman, Piscataway, N.J., USA; 7 mm diameter) saturated with 20% FeCl3 (EMD Chemicals Inc., Gibbstown, N.J., USA) was placed on the exposed surface of the carotid artery and incubated for 3.5 minutes. During the application of FeCl3, the neck region was covered with aluminum foil. At the end of the incubation period, the filter paper was removed and the exposed carotid was covered with a saline-soaked gauze. Time to occlusion was defined as the time from the application of FeCl3 until blood flow decreased to zero. […] Preparing and processing each animal took approximately 1 hr and 7 animals were treated each day. Control animals were always included when the other treatments were being administered. For this reason, the number of animals in the control group is higher than that of the treated-groups.
Statistical analysis was conducted using GraphPad™ Prism (GraphPad Software Inc., San Diego Calif., USA). Data were analyzed using one-way ANOVA with post-hoc Bonferroni correction for multiple comparisons. The relationship between thrombus weight and thrombus volume was determined by linear regression. […]

[3] = target: T1, rat-tail collagen type I (Rattus norvegicus, UniProt P02454+P02466); test: Peptide-collagen binding by reduction of collagen fibril alignment (deuterium coupling constant); conditions: collagen gelation under magnetic field in presence of peptide
T1 construct: purchased BD Bioscience; host or cells: rat tail (tissue-derived)
T1 sequence (P02454 152-1207): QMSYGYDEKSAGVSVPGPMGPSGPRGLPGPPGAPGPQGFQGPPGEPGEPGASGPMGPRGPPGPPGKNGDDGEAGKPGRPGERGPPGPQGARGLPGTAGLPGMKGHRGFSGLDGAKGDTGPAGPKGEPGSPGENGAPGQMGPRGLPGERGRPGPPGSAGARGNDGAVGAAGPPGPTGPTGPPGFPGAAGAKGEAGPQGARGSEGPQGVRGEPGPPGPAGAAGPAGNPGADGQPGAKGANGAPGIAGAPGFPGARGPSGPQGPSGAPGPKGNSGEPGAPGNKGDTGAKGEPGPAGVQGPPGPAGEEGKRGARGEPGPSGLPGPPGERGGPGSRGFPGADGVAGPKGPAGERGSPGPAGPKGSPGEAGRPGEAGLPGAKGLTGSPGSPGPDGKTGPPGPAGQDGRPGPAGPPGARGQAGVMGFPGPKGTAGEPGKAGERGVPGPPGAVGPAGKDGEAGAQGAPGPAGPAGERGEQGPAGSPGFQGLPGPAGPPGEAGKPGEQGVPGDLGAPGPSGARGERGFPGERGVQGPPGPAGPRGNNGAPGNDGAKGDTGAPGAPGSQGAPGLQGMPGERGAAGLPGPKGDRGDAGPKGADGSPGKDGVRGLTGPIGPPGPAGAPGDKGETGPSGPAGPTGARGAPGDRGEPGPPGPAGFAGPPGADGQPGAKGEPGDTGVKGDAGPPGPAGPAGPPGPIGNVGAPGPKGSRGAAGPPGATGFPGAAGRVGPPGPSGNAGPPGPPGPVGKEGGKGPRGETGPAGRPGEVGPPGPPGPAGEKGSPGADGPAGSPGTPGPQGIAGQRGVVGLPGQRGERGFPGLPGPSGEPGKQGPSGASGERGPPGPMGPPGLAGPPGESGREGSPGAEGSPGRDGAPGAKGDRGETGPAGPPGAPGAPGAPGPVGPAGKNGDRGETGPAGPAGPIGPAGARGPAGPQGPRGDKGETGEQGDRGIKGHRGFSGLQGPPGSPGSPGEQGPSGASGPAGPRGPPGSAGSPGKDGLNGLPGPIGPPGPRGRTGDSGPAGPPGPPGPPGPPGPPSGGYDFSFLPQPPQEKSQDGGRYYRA
T1 sequence (P02466 86-1125): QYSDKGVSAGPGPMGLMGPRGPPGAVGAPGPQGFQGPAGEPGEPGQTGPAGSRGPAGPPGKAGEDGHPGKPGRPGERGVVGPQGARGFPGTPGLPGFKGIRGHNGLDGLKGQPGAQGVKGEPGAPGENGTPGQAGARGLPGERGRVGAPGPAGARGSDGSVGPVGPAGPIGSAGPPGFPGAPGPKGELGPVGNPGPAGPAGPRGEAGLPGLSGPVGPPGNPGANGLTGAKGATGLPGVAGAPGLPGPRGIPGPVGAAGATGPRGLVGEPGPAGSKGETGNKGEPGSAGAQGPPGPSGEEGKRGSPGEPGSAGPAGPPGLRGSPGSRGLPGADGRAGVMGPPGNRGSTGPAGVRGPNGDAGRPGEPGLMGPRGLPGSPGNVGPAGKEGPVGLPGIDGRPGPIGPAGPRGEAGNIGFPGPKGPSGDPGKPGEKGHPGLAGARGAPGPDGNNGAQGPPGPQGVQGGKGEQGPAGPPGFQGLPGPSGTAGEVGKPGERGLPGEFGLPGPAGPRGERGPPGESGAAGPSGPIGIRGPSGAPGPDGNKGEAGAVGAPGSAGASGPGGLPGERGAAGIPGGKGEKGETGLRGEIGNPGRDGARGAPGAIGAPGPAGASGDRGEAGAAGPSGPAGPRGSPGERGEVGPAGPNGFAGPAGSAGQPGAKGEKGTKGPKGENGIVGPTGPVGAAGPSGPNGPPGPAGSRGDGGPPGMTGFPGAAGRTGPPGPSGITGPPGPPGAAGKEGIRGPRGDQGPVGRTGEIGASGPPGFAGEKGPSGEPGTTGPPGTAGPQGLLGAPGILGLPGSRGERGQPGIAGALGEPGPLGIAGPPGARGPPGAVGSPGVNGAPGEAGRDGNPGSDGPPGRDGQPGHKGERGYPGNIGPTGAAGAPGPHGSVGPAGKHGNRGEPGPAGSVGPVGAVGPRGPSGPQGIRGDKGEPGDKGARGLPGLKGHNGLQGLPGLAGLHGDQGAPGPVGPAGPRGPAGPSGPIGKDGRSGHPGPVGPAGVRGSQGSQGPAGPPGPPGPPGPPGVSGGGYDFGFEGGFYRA
Description: High-resolution proton NMR spectroscopy is used to illustrate the behavior of the linker peptides […] (SEQ ID NO: 2 or gb1), […] (SEQ ID NO: 3 or trpzip6), […] (SEQ ID NO: 4 or trpzip5) and […] (SEQ ID NO: 5 or trpzip4) in aqueous solutions. The peptides were synthesized using standard Fmoc chemistry and purified by reverse-phase HPLC. Their identity was confirmed by mass-spectroscopy and NMR spectroscopy. For NMR studies, a volume of (400-X) μL of a peptide dissolved in pure water was mixed with 50 μL of a 10×PBS (phosphate-buffered saline) supplemented by sodium phosphate to a final concentration of 50 mM and with 50 μL of deuterated water (D2O) to form the reference sample (where X=0) and with a certain volume (X μL) of rat-tail collagen type I (at 3.6 to 4 mg/ml in 0.02 N acetic acid from BD Bioscience), (where X is adjusted to achieve the desired final concentration of collagen), with 50 μL of the 10× modified PBS and with 50 μL of deuterated water (D2O) to form the peptide-collagen complex. The pH value of the reference peptide samples was adjusted to match the pH of the final peptide-collagen complex in order to facilitate NMR spectral comparison.
The peptide-collagen solutions were subjected to gelation under magnetic field guidance (see Example 7) followed by the measurement of fibril alignment (Ma 2008) as a semi-quantitative indication of peptide-collagen binding. […]

[4] = system: human coagulation proteome; test: Synthetic coagulation proteome assay (thrombin generation); assay type: biochemical; conditions: 37° C.
Description: This assay is carried out using an established protocol as described previously (Brummel-Ziedens 2008). Briefly, a pro-cofactor solution containing re-lipidated tissue factor (10 pM; molar ratio PCPS:TF=5000) was incubated with 4 μM PCPS in HBS (20 mM HEPES and 150 mM NaCl at pH 7.4) and 2 mM CaCl2 for 8 min at 37° C. Factor V (40 nM) and Factor VIII (1.4 nM) were then added to the mixture prior to initiation of the reaction to activate the protease zymogens in the blood coagulation cascade. The activation reaction was initiated by addition of the pro-cofactor solution to a zymogen solution containing prothrombin (2.8 μM), Factor VII (20 nM), Factor Vila (0.2 nM), FX (340 nM), Factor IX (180 nM), Factor XI (60 nM), TFPI (5 nM), antithrombin III (6.8 μM) […]
At selected time points after initiation of the reaction, 10 μL aliquots were withdrawn from the reaction mixture and quenched in 20 mM EDTA in HBS (pH 7.4) containing 0.2 mM Spectrozyme™ TH and assayed immediately for the proteolytic activity of thrombin. The hydrolysis of Spectrozyme™ TH was monitored by the change in absorbance at 405 nm using a SpectraMax™ plate reader (Molecular Devices Corp., Menlo Park, Calif., USA). Concentration of thrombin generated by the reaction was calculated from a standard curve prepared by serial dilutions of known concentrations of α-thrombin using the fibrinogen clotting assay (DiMaio 1990). Fibrinogen solution was freshly prepared by dissolving about 0.5% (w/v) fibrinogen in 50 mM Tris-HCl, 100 mM NaCl, 0.1% PEG-8000, pH 7.6 and filtering the resulting solution through a hydrophilic membrane of 0.45 μm polyvinylidene fluoride (PVDF) with low protein binding. The concentration of fibrinogen after filtration was determined by using the extinction coefficient of 15.0 for 1% fibrinogen at 280 nm. […] Thrombin-induced clotting of fibrinogen was followed at 25° C. by measuring the optical absorbance at 420 nm. The clotting time was obtained from extrapolation of the slope at the point of inflection to the zero absorbance baseline. […]

[5] = system: pooled human plasma; test: Activated partial thromboplastin time (APTT) clotting assay; assay type: biochemical; conditions: 37° C.; concentration for 50% of maximum delay in clotting time; read-out: MTC50 (APTT)
Description: as §1

Molecule | IC50 [1] [nM] | reduction of arterial occlusion [2] | other results
Bivalirudin [reference compound] | 93 | consistently better efficacy | 
GEWTWDDATKTWTWTE (not fully specified (C-terminus)) [trpzip4] |  |  | reduction of deuterium coupling constant (degree of collagen fibril alignment) [3]: more than 1.0 Hz
CC1CNc2c(cccc2S(=O)(=O)N[C@@H](CCCNC(=N)N)C(=O)N2CC[C@@H](C)C[C@@H]2C(=O)O)C1 (some centres unmarked) [Argatroban, reference compound] |  | consistently better efficacy | 
CC[C@H](C)[C@H](N)C(=O)N[C@@H](CCCNC(=N)N)C(=O)N[C@@H](Cc1ccccc1)C(=O)N[C@H](C(=O)N[C@@H](CC(=O)O)C(=O)NCC(=O)N[C@@H](CCC(=O)O)C(=O)NCC(=O)N[C@H](C(=O)NCC(=O)N[C@@H](CO)C(=O)NCC(=O)N[C@@H](CO)C(=O)NCC(=O)N[C@@H](CO)C(=O)NCC(=O)N[C@@H](CO)C(=O)NCC(=O)N[C@@H](CC(=O)O)C(=O)N[C@@H](Cc1ccccc1)C(=O)N[C@@H](CCC(=O)O)C(=O)N[C@@H](CCC(=O)O)C(=O)N[C@H](C(=O)N1CCC[C@H]1C(=O)N[C@@H](CCC(=O)O)C(=O)N[C@@H](CCC(=O)O)C(=O)N[C@@H](Cc1ccc(O)cc1)C(=O)N[C@@H](CC(C)C)C(=O)N[C@@H](CCC(N)=O)C(=O)O)[C@@H](C)CC)[C@@H](C)O)[C@@H](C)O [MH2-GS] | 200 |  | anticoagulant effect in PT versus APTT assays ([1]; in words): more potent effect in delaying the prothrombin time as compared to APTT; delay of thrombin burst / onset of thrombin generation [4]: clear dose-dependency for the delay of thrombin burst; EC50 [5]: 900 nM
